Data published in patent US20250034150A1, “BTK INHIBITORS” (BIOGEN MA INC., priority 2021, published 2025).
Where a name gives a salt, the structure may show the parent alone.

Molecular target: T1, BTK (Homo sapiens, UniProt Q06187)
T1 construct: purchased Upstate 14-552
Assay: In Vitro BTK Kinase Assay: Btk-PolyGAT-LS Assay
Assay type: biochemical
Details: active BTK enzyme 0.25 nM, polyGAT 100 nM, 30 minutes, TRF readout; read-out: In Vitro BTK Kinase Assay IC50 Score
Method: The purpose of the BTK in vitro assay is to determine compound potency against BTK through the measurement of IC50. Compound inhibition is measured after monitoring the amount of phosphorylation of a fluorescein-labeled polyGAT peptide (Invitrogen PV3611) in the presence of active BTK enzyme (Upstate 14-552), ATP, and inhibitor. The BTK kinase reaction was done in a black 96 well plate (costar 3694). For a typical assay, a 24 μL aliquot of a ATP/peptide master mix (final concentration; ATP […], polyGAT 100 nM) in kinase buffer (10 mM Tris-HCl pH 7.5, 10 mM MgCl2, 200 μM […], 5 mM DTT, 0.01% Triton X-100, and 0.2 mg/ml casein) is added to each well. Next, […] of a 4-fold, 40× compound titration in 100% DMSO solvent is added, followed by adding 15 μL of BTK enzyme mix in 1× kinase buffer (with a final concentration of 0.25 nM). The assay is incubated for 30 minutes before being stopped with 28 μL of a 50 mM EDTA solution. Aliquots (5 uL) of the kinase reaction are transferred to a low volume white 384 well plate (Coming 3674), and 5 μL of a 2× detection buffer (Invitrogen PV3574, with 4 nM Tb—PY20 antibody, Invitrogen PV3552) is added. The plate is covered and incubated for 45 minutes at room temperature. Time resolved fluorescence (TRF) on Molecular Devices M5 (332 nm excitation; 488 nm emission; 518 nm fluorescein emission) is measured. IC50 values are calculated using a four parameter fit with 100% enzyme activity determined from the DMSO control and 0% activity from the EDTA control.

T1 sequence (Q06187 whole entry): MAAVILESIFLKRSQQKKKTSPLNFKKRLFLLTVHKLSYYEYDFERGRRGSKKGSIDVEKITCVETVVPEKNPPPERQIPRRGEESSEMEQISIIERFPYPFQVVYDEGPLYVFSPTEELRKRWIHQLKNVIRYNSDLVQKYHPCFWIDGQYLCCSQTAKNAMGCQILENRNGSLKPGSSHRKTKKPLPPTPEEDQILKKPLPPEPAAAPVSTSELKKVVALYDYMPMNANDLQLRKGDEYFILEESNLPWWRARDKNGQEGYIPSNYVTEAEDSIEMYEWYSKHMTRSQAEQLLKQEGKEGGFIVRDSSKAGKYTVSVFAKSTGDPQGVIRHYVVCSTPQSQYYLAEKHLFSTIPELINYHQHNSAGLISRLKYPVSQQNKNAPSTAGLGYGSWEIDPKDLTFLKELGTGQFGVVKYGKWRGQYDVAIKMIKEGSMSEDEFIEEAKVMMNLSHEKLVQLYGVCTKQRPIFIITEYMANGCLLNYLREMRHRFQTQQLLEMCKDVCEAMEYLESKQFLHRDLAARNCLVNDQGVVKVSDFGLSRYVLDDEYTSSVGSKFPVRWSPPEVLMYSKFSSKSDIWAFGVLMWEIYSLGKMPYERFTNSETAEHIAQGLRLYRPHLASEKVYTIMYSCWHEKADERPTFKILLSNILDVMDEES

## CC(C)(C)c1nc(C(=O)NCc2ccc(-c3nc(N4CCOCC4)cn4nccc34)cc2F)co1 [Example 125, 2-(tert-butyl)-N-(2-fluoro-4-(6-morpholinopyrazolo[1,5-a]pyrazin-4-yl)benzyl)oxazole-4-carboxamide]
  IC50: 0.01 to 1 µM

## CC(C)N1CCN(CC2CCN(c3nc(-c4cnn(C)c4)cn4nccc34)CC2)C(=O)C1 [Example 173, 4-isopropyl-1-((1-(6-(1-methyl-1H-pyrazol-4-yl)pyrazolo[1,5-a]pyrazin-4-yl)piperidin-4-yl)methyl)piperazin-2-one]
  IC50: 1 to 10 µM

## Cn1cc(-c2cn3nccc3c(N3CC4CCC(C3)C4CNC(=O)c3noc(C(C)(C)C)n3)n2)cn1 [Example 165, 5-(tert-butyl)-N-(((1R,5S,8r)-3-(6-(1-methyl-1H-pyrazol-4-yl)pyrazolo[1,5-a]pyrazin-4-yl)-3-azabicyclo[3.2.1]octan-8-yl)methyl)-1,2,4-oxadiazole-3-carboxamide]
  IC50: 0.01 to 1 µM

## C[C@@H]1C[C@H](CNC(=O)c2cn(C(C)(C)C)nn2)CCN1c1nc(-c2cnn(C)c2)cn2nccc12 (single isomer, unassigned) [Example 141]
  IC50: 0.01 to 1 µM

## Cn1cc(-c2cn3nccc3c(N3CCC4(CC(NC(=O)c5noc(C(C)(C)C)n5)C4)C3)n2)cn1 (single isomer, unassigned) [Example 53, 5-(tert-butyl)-N-((2r,4s)-6-(6-(1-methyl-1H-pyrazol-4-yl)pyrazolo[1,5-a]pyrazin-4-yl)-6-azaspiro[3.4]octan-2-yl)-1,2,4-oxadiazole-3-carboxamide]
  IC50: 0.01 to 1 µM

## Cc1cc(-c2nc(-c3cnn(C4COC4)c3)cn3nccc23)ccc1CNC(=O)c1noc(C(C)(C)C)n1 [Example 55, 5-(tert-butyl)-N-(2-methyl-4-(6-(1-(oxetan-3-yl)-1H-pyrazol-4-yl)pyrazolo[1,5-a]pyrazin-4-yl)benzyl)-1,2,4-oxadiazole-3-carboxamide]
  IC50: < 0.001 µM

## Cn1cc(-c2cn3nccc3c(-c3ccc(CNC(=O)c4ccn(C(C)(C)C)n4)cc3F)n2)cn1 [Example 111, 1-(tert-butyl)-N-(3-fluoro-4-(6-(1-methyl-1H-pyrazol-4-yl)pyrazolo[1,5-a]pyrazin-4-yl)benzyl)-1H-pyrazole-3-carboxamide]
  IC50: 0.01 to 1 µM

## CN(C)c1cn2nccc2c(-c2ccc(CNC(=O)c3noc(C(C)(C)C)n3)cc2)n1 [Example 135, 5-(tert-butyl)-N-(4-(6-(dimethylamino)pyrazolo[1,5-a]pyrazin-4-yl)benzyl)-1,2,4-oxadiazole-3-carboxamide]
  IC50: 0.01 to 1 µM

## Cc1cc(-c2nc(-c3cnn(C)c3)cn3nccc23)ccc1CN1CCN(C2COC2)C(C)C1=O (stereo not shown) [Example 37, 3-methyl-1-(2-methyl-4-(6-(1-methyl-1H-pyrazol-4-yl)pyrazolo[1,5-a]pyrazin-4-yl)benzyl)-4-(oxetan-3-yl)piperazin-2-one]
  IC50: 0.01 to 1 µM

## Cn1cc(-c2cn3nccc3c(N3CCC(C)(CNC(=O)c4noc(C5(C)CC5)n4)C3)n2)cn1 (stereo not shown) [Example 51, N-((3-methyl-1-(6-(1-methyl-1H-pyrazol-4-yl)pyrazolo[1,5-a]pyrazin-4-yl)pyrrolidin-3-yl)methyl)-5-(1-methylcyclopropyl)-1,2,4-oxadiazole-3-carboxamide]
  IC50: 1 to 10 µM

## Cn1cc(-c2cn3nccc3c(N3CCC(F)(CNC(=O)c4cn(C(C)(C)C)nn4)CC3)n2)cn1 [Example 162, 1-(tert-butyl)-N-((4-fluoro-1-(6-(1-methyl-1H-pyrazol-4-yl)pyrazolo[1,5-a]pyrazin-4-yl)piperidin-4-yl)methyl)-1H-1,2,3-triazole-4-carboxamide trifluoroacetate]
  IC50: 0.01 to 1 µM

## Cn1cc(-c2cn3nccc3c(N3CCC(C)(CNC(=O)c4cnc(C(C)(C)C)o4)C3)n2)cn1 (stereo not shown) [Example 50, 2-(tert-butyl)-N-((3-methyl-1-(6-(1-methyl-1H-pyrazol-4-yl)pyrazolo[1,5-a]pyrazin-4-yl)pyrrolidin-3-yl)methyl)oxazole-5-carboxamide]
  IC50: 1 to 10 µM

## CN1CCN(c2cn3nccc3c(-c3ccc(CNC(=O)c4nnc(C(C)(C)C)o4)c(F)c3)n2)CC1 [Example 127]
  IC50: 0.01 to 1 µM

## C[C@H]1C[C@@H](CNC(=O)c2cn(C(C)(C)C)nn2)CCN1c1nc(-c2cnn(C)c2)cn2nccc12 (single isomer, unassigned) [Example 142]
  IC50: 0.01 to 1 µM

## CN1CCN(CC2CCN(c3nc(-c4cnn(C)c4)cn4nccc34)CC2)C(=O)C1 [Example 171, 4-methyl-1-((1-(6-(1-methyl-1H-pyrazol-4-yl)pyrazolo[1,5-a]pyrazin-4-yl)piperidin-4-yl)methyl)piperazin-2-one]
  IC50: 1 to 10 µM

## Cn1cc(-c2cn3nccc3c(-c3ccc(CNC(=O)c4ccn(C(C)(C)C)n4)c(C(F)F)c3)n2)cn1 [Example 103, 1-(tert-butyl)-N-(2-(difluoromethyl)-4-(6-(1-methyl-1H-pyrazol-4-yl)pyrazolo[1,5-a]pyrazin-4-yl)benzyl)-1H-pyrazole-3-carboxamide]
  IC50: 0.001 to 0.01 µM

## Cn1cc(-c2cn3nccc3c(N3CCC(C)(CNC(=O)c4nnn(C(C)(C)C)n4)C3)n2)cn1 (stereo not shown) [Example 48, 2-(tert-butyl)-N-((3-methyl-1-(6-(1-methyl-1H-pyrazol-4-yl)pyrazolo[1,5-a]pyrazin-4-yl)pyrrolidin-3-yl)methyl)-2H-tetrazole-5-carboxamide]
  IC50: 0.01 to 1 µM

## Cn1cc(-c2cn3nccc3c(N3CCC4(CC(NC(=O)c5noc(C(C)(C)C)n5)C4)C3)n2)cn1 (stereo not shown) [Example 52, 5-(tert-butyl)-N-(6-(6-(1-methyl-1H-pyrazol-4-yl)pyrazolo[1,5-a]pyrazin-4-yl)-6-azaspiro[3.4]octan-2-yl)-1,2,4-oxadiazole-3-carboxamide]
  IC50: 1 to 10 µM

## Cn1cc(-c2cn3nccc3c(N3CCC(CN4CCN(CC5CCC5)CC4=O)CC3)n2)cn1 [Example 169, 4-(Cyclobutylmethyl)-1-((1-(6-(1-methyl-1H-pyrazol-4-yl)pyrazolo[1,5-a]pyrazin-4-yl)piperidin-4-yl)methyl)piperazin-2-one]
  IC50: 0.01 to 1 µM

## CC(C)CN1CCN(CC2CCN(c3nc(-c4cnn(C)c4)cn4nccc34)CC2)C(=O)C1 [Example 168, 4-isobutyl-1-((1-(6-(1-methyl-1H-pyrazol-4-yl)pyrazolo[1,5-a]pyrazin-4-yl)piperidin-4-yl)methyl)piperazin-2-one]
  IC50: 0.01 to 1 µM

## Cn1cc(-c2cn3nccc3c(N3CCCC(CNC(=O)c4cn(C(C)(C)C)nn4)CC3)n2)cn1 (stereo not shown) [Example 167, 1-(tert-butyl)-N-((1-(6-(1-methyl-1H-pyrazol-4-yl)pyrazolo[1,5-a]pyrazin-4-yl)azepan-4-yl)methyl)-1H-1,2,3-triazole-4-carboxamide]
  IC50: 0.01 to 1 µM

## CCCN1CCN(CC2CCN(c3nc(-c4cnn(C)c4)cn4nccc34)CC2)C(=O)C1 [Example 170, 1-((1-(6-(1-methyl-1H-pyrazol-4-yl)pyrazolo[1,5-a]pyrazin-4-yl)piperidin-4-yl)methyl)-4-propylpiperazin-2-one hydrochloride]
  IC50: 1 to 10 µM

## Cn1cc(-c2cn3nccc3c(N3CCC4(CC(NC(=O)c5noc(C(C)(C)C)n5)C4)C3)n2)cn1 (single isomer, unassigned) [Example 54, 5-(tert-butyl)-N-((2s,4r)-6-(6-(1-methyl-1H-pyrazol-4-yl)pyrazolo[1,5-a]pyrazin-4-yl)-6-azaspiro[3.4]octan-2-yl)-1,2,4-oxadiazole-3-carboxamide]
  IC50: 1 to 10 µM

## CC(C)(C)n1cc(C(=O)NCc2ccc(-c3nc(N4CCOCC4)cn4nccc34)cc2)nn1 [Example 26, 1-(tert-butyl)-N-(4-(6-morpholinopyrazolo[1,5-a]pyrazin-4-yl)benzyl)-1H-1,2,3-triazole-4-carboxamide]
  IC50: 0.01 to 1 µM

## Cc1cc(-c2nc(-c3cnn(C)c3)cn3nccc23)ccc1CN1CCN(CC2COC2)CC1=O [Example 32, 1-(2-methyl-4-(6-(1-methyl-1H-pyrazol-4-yl)pyrazolo[1,5-a]pyrazin-4-yl)benzyl)-4-(oxetan-3-ylmethyl)piperazin-2-one]
  IC50: 0.01 to 1 µM

## CN1CCN(c2cn3nccc3c(-c3ccc(CNC(=O)c4coc(C(C)(C)C)n4)c(F)c3)n2)CC1 [Example 129, 2-(tert-butyl)-N-(2-fluoro-4-(6-(4-methylpiperazin-1-yl)pyrazolo[1,5-alpyrazin-4-yl)benzyl)oxazole-4-carboxamide trifluoroacetate]
  IC50: 0.01 to 1 µM

## CC(C)(C)n1cc(C(=O)NCc2ccc(-c3nc(N4CCOCC4)cn4nccc34)cc2)cn1 [Example 27, 1-(tert-butyl)-N-(4-(6-morpholinopyrazolo[1,5-a]pyrazin-4-yl)benzyl)-1H-pyrazole-4-carboxamide]
  IC50: 1 to 10 µM

## Cc1cc(-c2nc(N3CCOCC3)cn3nccc23)ccc1CNC(=O)c1cnn(C(C)(C)C)n1 [Example 123, 2-(tert-butyl)-N-(2-methyl-4-(6-morpholinopyrazolo[1,5-a]pyrazin-4-yl)benzyl)-2H-1,2,3-triazole-4-carboxamide]
  IC50: 0.01 to 1 µM
